Measured values published in patent US20260022322A1, “MULTIMODAL BIOPHYSICAL CHARACTERIZATION APPARATUS, SYSTEM, METHOD, AND USE” (Yigong Ruixin (Xiamen) Technology Co., Ltd, priority 2023, published 2026).

How the values were obtained:
tumor cells = assay: Immune-tumor cell interaction on cell mechanics chip with drug intervention; format: cell-based
Source text: S1. Prepare the chip: Select a cell mechanics chip with a micropillar structure. The top of the micropillars is coated with a suitable extracellular matrix (ECM) to promote the attachment and growth of tumor cells and immune cells. Use an anti-adhesion treatment on the side surfaces of the micropillars and in the space between them.
S2. Seed tumor cells and immune cells: Seed tumor cells and immune cells (such as NK cells or T cells) separately on the mechanics chip, allowing them to interact.
S3. Monitor the mechanical properties of the tumor cells: Use the light reflection signal and micropillar deflection to monitor in real-time the changes in the cell mechanical force and hardness of the tumor cells during their interaction with the immune cells.
S4. […] Softer tumor cells (with smaller cell mechanical force) are difficult for immune cells to recognize and kill.
S5. Drug intervention: Add the drug JAS, which makes tumor cells harder, to the culture medium, and observe the changes in the cell mechanical force and hardness of the tumor cells.
S6. Evaluate the effect of drug intervention: Under the action of the drug, the tumor cells become harder, and the cell mechanical force increases (FIG. 32). It was observed that the killing effect of immune cells on tumor cells was enhanced accordingly.

[1] = test system: macrophage cell line THP-1; assay: Nuclear hardness of activated THP-1 by magnetic material method and fluorescence method; format: cell-based; conditions: THP-1 activated to M1-type macrophages
Source text: S1: Provide a chip whose surface is covered with PDMS nano-magnetic micropillars. The micropillars contain a fluorescent substance and have an extracellular matrix coating.
S2: Culture the macrophage cell line THP-1 on this chip. Contact between the THP-1 cells and the chip is made by controlling the height of the culture medium.
S3: Add lipopolysaccharide (LPS) to the culture medium to activate the THP-1 cells, causing them to transform into M1-type macrophages.
S4: After several days of cultivation, use the magnetic material method to turn on the magnetic field and measure the reflected light attenuation. After turning off the magnetic field, measure the light reflection signal attenuation value and frequency of each micropillar, and sequentially calculate the softness/hardness of the nucleus at each position.
S5: Use paraformaldehyde to fix the cells on the chip, and use DAPI to stain the nuclei.
S6: Using the fluorescence method, use a confocal microscope to perform a Z-axis tomographic scan from the top to the bottom of the micropillars, and analyze the depth of the DAPI signal of the nucleus between the micropillars. […]
The results measured by the magnetic material method and the fluorescence method are the same (FIG. 33), proving that the accuracy of measuring nuclear hardness by the magnetic material method has been cross-validated by the fluorescence method.

[2] = drug added to culture medium, micropillar chip, light reflection signal (FIG. 32)

C/C1=C\[C@H](C)C[C@H](C)OC(=O)C[C@H](c2ccc(O)cc2)NC(=O)[C@@H](Cc2c(Br)[nH]c3ccccc23)N(C)C(=O)[C@H](C)NC(=O)[C@@H](C)C1 [JAS]
cell mechanical force of the tumor cells (tumor cells; [2]): increases
hardness of the tumor cells (tumor cells; [2]): become harder
killing effect of immune cells on tumor cells (tumor cells; tumor cells co-seeded with immune cells (such as NK cells or T cells), under the action of the drug): enhanced

lipopolysaccharide [LPS]
sagging depth of the nucleus between the micropillars ([1]; DAPI, confocal Z-axis scan (fluorescence method)): becomes deeper
nuclear hardness ([1]; magnetic material method and fluorescence method gave the same result (FIG. 33)): softer
